In PMC12192727, “Strategies to Develop Na,K-ATPase-α4 Inhibitors as Male Contraceptives” (International Journal of Molecular Sciences, 2025):
Where two headings read alike, the source gives them in different places. Each block holds one compound with its values, some of them ahead of it.

Columns and labels:
mouse sperm = assay: Mouse sperm total motility in vitro (CASA); assay type: cell-based; details: for Emax: Mus musculus, Sperm, 1 h, nanomolar range concentration, read-out: Maximal Motility Inhibition (%); for Emax / Shape of inhibitory dose response on sperm motility: mouse sperm total motility
Description: To characterize the SAR of these compounds, we first evaluated their effects on total sperm motility in vitro. Sperm isolated from the cauda epididymis of mice were incubated with the test compounds in modified Whitten’s medium under non-capacitating conditions. Motility was assessed using a computer-assisted sperm analysis (CASA) system.
All experimental protocols involving animals used in this work were approved by the University of Kansas Medical Center Institutional Animal Care and Use Committee (ACUP number: 22-09-26, 10/2022). C57BL/6 mice were purchased from Harlan (Indianapolis, IN, USA). Spermatozoa were isolated from the cauda of adult mouse epididymis in Whitten’s medium, containing 100 mM NaCl, 4.7 mM KCl, 1.2 mM KH2PO4, 1.2 mM MgSO4, 5.5 mM glucose, 0.8 mM pyruvic acid, 4.8 mM lactic acid, and 40 mM Hepes, as previously described.
Spermatozoa (1 × 10^6 cells) were incubated at 37 °C in 100 μL of Whitten’s medium, with the addition of 1.7 mM CaCl2 and in the absence and presence of different amounts of the tested compounds for 60 min. Then, cells were labeled with the fluorescent nucleic acid stain SYTO 21, which allows for the tracking of the movement of the cell head. After 1 min of incubation with the dye, 5.5 μL aliquots from each sample were taken and placed into a glass cell chamber (Leja Products B.V., Nieuw-Vennep, The Netherlands). Sperm were maintained at 37 °C on a heated platform and viewed with an Olympus BX51 microscope (Olympus, Center Valley, PA, USA) through a 20× phase objective. Images of the moving sperm were captured using a CCD camera. Samples were analyzed by CASA using the Minitube SpermVision Digital Semen Evaluation system (version 3.5; Penetrating Innovations, Verona, WI, USA). An average of 200 cells/field were captured, at a rate of 30 frames per field, and a total of 10 fields in each sample were analyzed. Total sperm motility was obtained from sperm maintained in a non-capacitating medium, while for assessing the hyperactive pattern of motility, typical of sperm capacitation, cells were incubated in Whitten’s medium with the addition of 1.7 mM CaCl2, 25 mM sodium bicarbonate, and 0.5% bovine serum albumin.
(§1) Figure 2 Effect of simplified steroidal analogs on mouse sperm total motility. Sperm was isolated from the cauda epididymis and treated in the absence and presence of the indicated concentrations of each compound. After one hour of incubation, sperm motility was determined by CASA. Values are expressed as the mean ± SEM of three determinations.
as §1, with “4” for “2”, “non-steroidal small compounds” for “simplified steroidal analogs”, “1 h” for “one hour”

Caco-2 cell permeability = assay type: in vitro ADME, human; details: human; for Papp A→B / recovery: Caco-2, Caco-2 cells; for Papp A→B: read-out: Papp (A-B); for Papp B→A / efflux ratio: Caco-2 cells; for efflux ratio: Papp(B-A)/Papp(A-B)
Description: The in vitro permeability and potential to be transported by P-gp (P-glycoprotein) were determined in a Caco-2 or MDCK cell line. Values are reported for a mass recovery > 60%. The efflux ratio was determined as follows: P^app(B-A)/Papp(A-B). The experimental details are reported in the Supporting Information (Tables S2–S5).
The recovery can be determined using the following equation:
Recovery%=(VA×[drug]acceptor+VD×[drug]donor)/(VD×[drug]initial, donor)
Where VA is the volume (in mL) in the acceptor well (0.235 mL for Ap→Bl flux, and 0.075 mL for
Bl→Ap), VD is the volume (in mL) in the donor well (0.075 mL for Ap→Bl flux, and 0.235 mL for
The leakage of Lucifer Yellow, in unit of percentage (%), can be calculated using the following
%LY leakage = 100×[LY]acceptor×0.3/([LY]donor×0.1+[LY]acceptor×0.3)
LY leakage of <1% is acceptable to indicate the well-qualified MDCK/ Caco-2 monolayer.
Table S5 . The Assessment of Caco-2 Cell Monolayer Integrity
The apparent permeability coefficient (Papp), Efflux ratio (ER), recovery percentage, and LY leakage percentage can be
calculated for Caco-2 Cell drug transport assays using the above equations. […]

MDCK cell permeability = details: dog, MDCK; for Papp A→B / recovery: MDCK cells; for Papp A→B: BSA 0% for controls, 0.5% for 13
[1] = simplified steroid analogs, mouse sperm motility
[2] = non-steroidal small molecules, mouse sperm motility

SMILES: C[C@]12CC[C@H]3[C@@H](CC=C4C[C@@H](O)CC[C@@]43C)[C@@H]1CC[C@@H]2c1c[nH]nn1 [Compound 15, (3S,8S,9S,10R,13S,14S,17S)-10,13-Dimethyl-17-(1H-1,2,3-triazol-4-yl)-2,3,4,7,8,9,10,11,12,13,14,15,16,17-tetradecahydro-1H-cyclopenta[a]phenanthren-3-ol]
Emax (mouse sperm; simplified steroid analogs): 42% | Shape of inhibitory dose response on sperm motility (mouse sperm): monotonic inhibitory response | IC50 (mouse sperm; [1]): 0.019 nM | IC50 (pM) (mouse sperm; [1]): sub-nanomolar range

SMILES: C[C@]12CC[C@H](OC(=O)[C@@H](N)CCCCN)CC1=CCC1C2CC[C@@]2(C)C1CC[C@@H]2c1cn(Cc2ccccc2)nn1.Cl.Cl (stereo partly drawn) [Compound 19, (3S,10R,13S,17S)-17-(1-Benzyl-1H-1,2,3-triazol-4-yl)-10,13-dimethyl-2,3,4,7,8,9,10,11,12,13,14,15,16,17-tetradecahydro-1H-cyclopenta[a]phenanthren-3-yl L-Lysinate Dihydrochloride]
Emax (mouse sperm; simplified steroid analogs): ~37% | Shape of inhibitory dose response on sperm motility (mouse sperm): biphasic inhibition | IC50 (mouse sperm; [1]): 0.032 nM

SMILES: C[C@]12CC[C@H]3[C@@H](CC=C4C[C@@H](O)CC[C@@]43C)[C@@H]1CC[C@H]2n1cc(-c2ccccc2)nn1 [Compound 24, (3S,8R,9S,10R,13S,14S,17R)-10,13-Dimethyl-17-(4-phenyl-1H-1,2,3-triazol-1-yl)-2,3,4,7,8,9,10,11,12,13,14,15,16,17-tetradecahydro-1H-cyclopenta[a]phenanthren-3-ol]
Emax (mouse sperm; simplified steroid analogs): 50% | Shape of inhibitory dose response on sperm motility (mouse sperm): biphasic inhibition | IC50 (mouse sperm; [1]): 0.015 nM

SMILES: C[C@]12CC[C@H]3[C@@H](CC=C4C[C@H](N5CCOCC5)CC[C@@]43C)[C@@H]1CC[C@H]2n1cc(-c2ccccc2)nn1 [Compound 26, 4-((3R,8R,9S,10R,13S,14S,17R)-10,13-Dimethyl-17-(4-phenyl-1H-1,2,3-triazol-1-yl)-2,3,4,7,8,9,10,11,12,13,14,15,16,17-tetradecahydro-1H-cyclopenta[a]phenanthren-3-yl)morpholine]
Emax (mouse sperm; simplified steroid analogs): ~40% | Shape of inhibitory dose response on sperm motility (mouse sperm): biphasic inhibition | IC50 (mouse sperm; [1]): 0.031 nM

SMILES: COCCc1ccc(OCC(O)CNC(C)C)cc1 (centres unmarked) [Metoprolol]
Papp B→A (MDCK cell permeability): 17 ×10⁻⁶ cm/s | efflux ratio (MDCK cell permeability): 0.79 | Papp A→B (MDCK cell permeability): 21.6 ×10⁻⁶ cm/s | recovery (MDCK cell permeability; Recovery (%) AP-BL): 83.5% | recovery (MDCK cell permeability; Recovery (%) BL-AP): 97.1%

SMILES: CC(C)NCC(O)COc1cccc2ccccc12 (centres unmarked) [Propranolol]
Papp A→B (Caco-2 cell permeability): 24.4 ×10⁻⁶ cm/s | recovery (Caco-2 cell permeability; read-out: Recovery (%) AP-BL): 72.8% | recovery (Caco-2 cell permeability; read-out: Recovery (%) BL-AP): 86.6% | Papp B→A (Caco-2 cell permeability): 16.4 ×10⁻⁶ cm/s | efflux ratio (Caco-2 cell permeability): 0.67

More lines, main results first:

IC50 (mouse sperm; [2]): 0.023 nM
SMILES: C[C@]12CCC(=O)C=C1CC[C@@H]2c1cn(Cc2ccccc2)nn1 [Compound 33, (1S,7aR)-1-(1-Benzyl-1H-1,2,3-triazol-4-yl)-7a-methyl-1,2,3,6,7,7a-hexahydro-5H-inden-5-one]
Emax (mouse sperm; non-steroidal small molecules): 48%

IC50 (mouse sperm; [2]): 0.071 nM
SMILES: CC12CCC(=O)C=C1CCC2c1c[nH]nn1 [Compound 35, (1S,7aR)-7a-Methyl-1-(1H-1,2,3-triazol-4-yl)-1,2,3,6,7,7a-hexahydro-5H-inden-one]
Emax (mouse sperm; non-steroidal small molecules): 47%

IC50 (mouse sperm; [2]): 0.06 nM
SMILES: CC12CCC(=NN=C(N)N)C=C1CCCC2c1cn(Cc2ccccc2)nn1 (centres unmarked) [Compound 40, N’-(5-(1-Benzyl-1H-1,2,3-triazol-4-yl)-4a-methyl-4,4a,5,6,7,8-hexahydronaphthalen-2(3H)-ylidene)amidinohydrazone]
Emax (mouse sperm; non-steroidal small molecules): 49%

IC50 (mouse sperm; [2]): 0.037 nM
SMILES: CC12CCC(=NN=C(N)N)C=C1CCC2C=NN=C(N)N [Compound 41, (E+Z)-2-(((1S,7aR,E)-5-(2-Carbamimidoylhydrazineylidene)-7a-methyl-2,3,5,6,7,7a-hexahydro-1H-inden-1-yl)methylene)hydrazine-1-carboximidamide, reference compound]
Emax (mouse sperm; non-steroidal small molecules): 44%

IC50 (mouse sperm; [2]): 0.302 nM
SMILES: CC12CCC(=NN=C(N)N)C=C1CCCC2C=NN=C(N)N (centres unmarked) [Compound 42, (E+Z)-2-((6-(2-Carbamimidoylhydrazineylidene)-8a-methyl-1,2,3,4,6,7,8,8a-octahydronaphthalen-1-yl)methylene)hydrazine-1-carboximidamide]
Emax (mouse sperm; non-steroidal small molecules): 49%

Papp A→B (Caco-2 cell permeability): 0.63 ×10⁻⁶ cm/s | recovery (Caco-2 cell permeability; read-out: Recovery (%) AP-BL): 88.7% | recovery (Caco-2 cell permeability; read-out: Recovery (%) BL-AP): 107% | Papp B→A (Caco-2 cell permeability): 18.8 ×10⁻⁶ cm/s | efflux ratio (Caco-2 cell permeability): 30 | Papp B→A (MDCK cell permeability): 3.29 ×10⁻⁶ cm/s | efflux ratio (MDCK cell permeability): 3.26 | Papp A→B (MDCK cell permeability): 1.01 ×10⁻⁶ cm/s | recovery (MDCK cell permeability; Recovery (%) AP-BL): 84% | recovery (MDCK cell permeability; Recovery (%) BL-AP): 106%
SMILES: C[C@H]1O[C@@H](O[C@H]2[C@@H](O)C[C@H](O[C@H]3[C@@H](O)C[C@H](O[C@H]4CC[C@@]5(C)[C@H](CC[C@@H]6[C@@H]5C[C@@H](O)[C@]5(C)[C@@H](C7=CC(=O)OC7)CC[C@]65O)C4)O[C@@H]3C)O[C@@H]2C)C[C@H](O)[C@@H]1O [Digoxin]

Papp A→B (Caco-2 cell permeability): 7.59 ×10⁻⁶ cm/s | recovery (Caco-2 cell permeability; read-out: Recovery (%) AP-BL): 71.4% | recovery (Caco-2 cell permeability; read-out: Recovery (%) BL-AP): 85% | Papp B→A (Caco-2 cell permeability): 24.3 ×10⁻⁶ cm/s
SMILES: COc1cc2nc(N3CCN(C(=O)c4ccco4)CC3)nc(N)c2cc1OC [Prazosin]
